Reference: paper PMC8216263 (Pharmaceutical Biology, 2021)
Read-outs that look alike come from different tables or passages of the source.

Key:
[1] = Single- and multiple-dose plasma pharmacokinetics of GA and PCA after oral RLQ in healthy subjects; type: in vivo, human; conditions: for AUC(0-inf) / AUC(0-t) / Vd/F / k el / half-life: 8 g; for Vd/F: read-out: Vz/F; for k el: read-out: ke (converted)
Protocol: The study protocol was approved by the Ethics Committee of the Second Affiliated Hospital of Tianjin University of Traditional Chinese Medicine. […] Subjects were offered standard meals at 4 and 10 h after dosing. Water was not permitted during the hour before and the hour after dosing, except for 240 mL administered with dosing; additional water intake was allowed at all other times.
In the single-dose study, 8 g of RLQ was administered orally on day 1. A 7-d washout time was designed between single-dose and multiple-dose pharmacokinetic studies. In the multiple-dose study, subjects received multiple doses of RLQ (8 g, t.i.d.) for seven consecutive days from day 8 to day 14 and a single dose of RLQ (8 g) on the morning of day 15. […] Additional pre-dose samples were collected in the morning on days 12, 13 and 14. […] All samples were stored at −80 °C until analysis.
All analytes were extracted from plasma and urine samples by simple protein precipitation extraction method using acetonitrile. Briefly, 5 µL of internal standard solution and 300 μL of acetonitrile were added to the spiked blank matrix (100 μL) and vortexed for 3 min and then centrifuged at 13,000 × g for 10 min. The supernatant was transferred and dried using a flow of nitrogen. The residue was re-dissolved in 100 µL of 10% methanol solution containing 0.1% formic acid. An aliquot of 5 µL solution was injected into the LC-MS/MS system for analysis.
The chromatographic separation was performed on an Acquity Ultra Performance LC instrument (Waters, Milford, MA) with a gradient programme in an ACQUITY UPLC BEH C18 column (2.1 mm × 100 mm, 1.7 μm). […] The injection volume was 2 µL. The mass spectrometry analysis was performed on an AB Sciex Triple Quad 5500 MS (Framingham, MA) equipped with an ESI source.
The peak plasma concentration (Cmax) and time to reach the peak plasma concentration (Tmax) were calculated from the actual plasma concentration data. The area under the plasma concentration-time curve from zero to the last measurable concentration (AUC0–t) was calculated via the linear trapezoidal rule. AUC0–∞ was calculated using the following formula: AUC0–∞ = AUC0–t + Ct/ke, where Ct is the last plasma concentration measured. […] The accumulation index was calculated as AUCss/AUC0–t.

[2] = rats, ref Ma et al. 2016, cited from earlier work
OAT3 = biological target: T1, OAT3 (Homo sapiens, UniProt Q8TCC7); experiment: Inhibition of OAT3-mediated 3H-ES uptake in S2-OAT3 cells; type: cell-based; conditions: GA 50–5000 μg/L, PCA 10–1000 μg/L
T1 construct: host or cells: S2 (second portion of proximal tubule) cells
T1 sequence (Q8TCC7 1-542): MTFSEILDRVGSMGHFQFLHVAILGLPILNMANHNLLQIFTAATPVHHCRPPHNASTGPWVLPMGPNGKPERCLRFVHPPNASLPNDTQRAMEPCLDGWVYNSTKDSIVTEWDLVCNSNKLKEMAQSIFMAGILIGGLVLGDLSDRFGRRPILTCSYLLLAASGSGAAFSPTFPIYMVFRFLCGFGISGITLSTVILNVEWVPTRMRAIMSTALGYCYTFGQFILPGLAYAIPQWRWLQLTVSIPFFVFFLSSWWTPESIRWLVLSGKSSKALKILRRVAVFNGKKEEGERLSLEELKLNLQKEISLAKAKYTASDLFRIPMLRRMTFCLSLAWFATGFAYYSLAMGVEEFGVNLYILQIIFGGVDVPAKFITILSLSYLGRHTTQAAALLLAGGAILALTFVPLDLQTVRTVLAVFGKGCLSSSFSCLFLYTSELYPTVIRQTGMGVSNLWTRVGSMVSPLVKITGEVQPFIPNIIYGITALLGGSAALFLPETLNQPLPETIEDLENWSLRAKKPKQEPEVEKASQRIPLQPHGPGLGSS
Protocol: Cells were cultured in DMEM supplemented with 10% FBS, 100 units/mL penicillin and 100 units/mL streptomycin. […] Cell culture flasks, 24-well cell culture plates, and transwell polycarbonate inserts (12 mm diameter, 0.4 μm pore size) were purchased from Corning Co-star Corp. (Bedford, MA).
The MDCK-OAT1, S2-OAT3, S2-OCT2 and HEK293-OATP1B1 cell lines were utilized in this study. […] Briefly, S2-OAT3, S2-OCT2 and S2-mock cells were trypsinized and uniformly suspended in the culture medium’s designated volume to provide a density of 2.0 × 10^5 cells/mL. A 1.0-mL aliquot of the cell suspension was added into each well of 24-well insert plates. HEK293-OATP1B1, MDCK-OAT1 and their mock cells were seeded in 24-well plates at a density of 1.5 × 10^5 cells/well. […] Three washes terminated the experiment with ice-cold DPBS buffer after removing the incubation buffer. Cells were lysed with 400 μL of […] sodium hydroxide solution. The cell lysate and 3.0 mL of aquasol-2 scintillation fluid were put into a scintillation flask. […] The final concentration of DMSO in the assay was less than 0.1%. All experiments were performed in triplicate.

[3] = both sexes, human, plasma, oral, human plasma, multiple dose RLQ 8 g
[4] = both sexes, human, plasma, oral, human plasma, multiple dose RLQ 8 g, read-out: AUC0–t
[5] = both sexes, human, plasma, oral, human plasma, single dose RLQ 8 g
[6] = both sexes, human, plasma, oral, human plasma, single dose RLQ 8 g, read-out: AUC0–t
[7] = both sexes, human, plasma, oral, multiple dose RLQ 8 g
[8] = both sexes, human, plasma, oral, multiple dose RLQ 8 g, read-out: t1/2 (converted)
[9] = both sexes, human, plasma, oral, single dose RLQ 8 g
[10] = both sexes, human, plasma, oral, single dose RLQ 8 g, read-out: t1/2 (converted)
[11] = both sexes, human, plasma, oral, single dose RLQ 8 g, median (range), read-out: tmax
[12] = both sexes, human, plasma, po, abstract summary, oral RLQ, read-out: half-life
[13] = both sexes, oral, human plasma, multiple dose RLQ 8 g t.i.d. 7 d then single dose, means ± SD, read-out: Cmax
[14] = both sexes, human plasma, single oral dose RLQ 8 g, means ± SD, read-out: Cmax
[15] = human, plasma, oral, single dose RLQ 8 g, female subjects n = 6, read-out: Cmax in women
[16] = human, plasma, oral, single dose RLQ 8 g, male subjects n = 6, read-out: Cmax in men
[17] = multiple dose RLQ 8 g, median (range)

SMILES | time to absorption into the blood after administration ([1]; abstract summary, oral RLQ) [h] | AUC(0-inf) [1, 3] [ng·h/mL] | AUC(0-t) [1, 4] [ng·h/mL] | AUC(0-inf) [1, 5] [ng·h/mL] | AUC(0-t) [1, 6] [ng·h/mL] | Vd/F [1, 7] [L] | k el [1, 7] [s⁻¹] | half-life [1, 8] [min] | Vd/F [1, 9] [L] | k el [1, 9] [s⁻¹] | half-life [1, 10] [min] | tmax [1, 11] [min] | half-life [1, 12] [min] | Cmax [1, 13] [ng/mL] | Cmax [1, 14] [ng/mL] | Cmax [1, 15] [ng/mL] | Cmax [1, 16] [ng/mL] | CL/F ([1]; multiple dose RLQ 8 g) [L/h] | tmax [1, 17] | CL/F ([1]; single dose RLQ 8 g) [L/h] | other results
O=C(O)c1cc(O)c(O)c(O)c1 [GA, gallic acid] | ≤ 1 | 209 ± 63.5 | 205 ± 62.8 | 256 ± 74.9 | 251 ± 74.4 | 292 ± 113 | 0.00015 | 80.4 ± 19.2 | 241 ± 82.7 | 0.000147 | 82.2 ± 22.2 | 45 | < 120 | 118 ± 39.5 | 139 ± 49.4 | 176 | 102 | 152 ± 51.6 | 0.75 (0.75, 1) h | 124 ± 42.0 | AUC(0-t) ([1]; female, human, plasma, oral, single dose RLQ 8 g, female subjects, read-out: AUC0–t in women): 301 ± 46.3 ng·h/mL; AUC(0-t) ([1]; male, human, plasma, oral, single dose RLQ 8 g, male subjects, read-out: AUC0–t in men): 201 ± 63.3 ng·h/mL; Vz/F and CL/F, females versus males ([1]; p < 0.05): significantly lower levels in females than in males; concentration in rat kidney tissue [2]: 1218 ng/g
O=C(O)c1ccc(O)c(O)c1 [PCA, protocatechuic acid] | ≤ 1 | 3.09 ± 0.9 | 2.81 ± 0.81 | 3.64 ± 1.35 | 3.2 ± 1.17 | 139 ± 46.1 | 0.000789 | 15.6 ± 4.8 | 158 ± 101 | 0.000672 | 19.8 ± 8.4 | 19.8 | < 120 | 5.45 ± 1.58 | 6.06 ± 2.28 | 7.58 | 4.54 | 379 ± 119 | 0.33 (0.17, 0.5) h | 337 ± 135 | response in human plasma and urine samples ([1]; LC-MS/MS after oral RLQ): relatively high response; accumulation ratio (AUCss/AUC0–t) ([1]; after multiple doses, median (range)): 1.04 (0.56–1.51); inhibitory effect on OAT3 (OAT3): no significant inhibitory effect; unchanged amount that survived the metabolism, % of the total intake ([2]; urinary excretion): ~15.7%
